{"source": "patent US6020363A", "about": "“Isocoumarin derivatives and use thereof in drugs” (Mercian Corporation, priority 1998, dated 2000)", "key": {"[1]": {"experiment": "Levels of Orally Administered Test Compounds in Blood Plasma", "format": "in vivo, male ICR mice", "conditions": "oral 25 mg/kg", "method": "Each of Compound 3 and MI43 was orally administered to fasted male ICR mice (weighing 18-21 g) in a dose of 25 mg/kg. Blood samples were collected from the mice 5 minutes, 30 minutes, 4 hours, 8 hours and 24 hours after administration (3 mice per point for Compound 3 and 5 mice per point for MI43). These blood samples were centrifuged to obtain blood plasma samples. Each of the blood plasma samples was subjected to the following pretreatment and then analyzed by high-performance liquid chromatography (HPLC). 1.8 ml of a saturated aqueous solution of ammonium sulfate and 1.0 ml of methanol were added to and mixed with 0.2 ml of the blood plasma sample. This mixture was shaken with 3.5 ml of ethyl acetate. After this mixture was centrifuged, the ethyl acetate layer was separated. Moreover, the aqueous layer was shaken with 3.5 ml of ethyl acetate, followed by centrifugation. The ethyl acetate layer thus obtained was combined with the previously separated ethyl acetate layer, and this mixture was evaporated to dryness under reduced pressure. The resulting residue was redissolved in 0.2 ml of a 50% aqueous solution of acetonitrile and used as a sample for HPLC.\nThe analytical conditions for HPLC (using the CCTD system manufactured by Toso Co., Ltd.) were as follows: A YMC A-312 column (ODS 6×150 mm; manufactured by YMC Co., Ltd.) was used as the column. As the mobile phase, a 60:40 mixture of acetonitrile and 0.1% aqueous TFA was used for Compound 3, and a 40:60 mixture of acetonitrile and 0.1% aqueous TFA was used for MI43. The rest compound was eluted at a flow velocity of 1.0 ml/min and detected by UV light at 244 nm."}, "[2]": {"system": "cyclooxygenase (or prostaglandin endoperoxide synthase)", "experiment": "Effect on cyclooxygenase activity", "format": "biochemical, sheep", "method": "The inhibitory effect of Compound 3 on cyclooxygenase (or prostaglandin endoperoxide synthase) activity was tested according to the method of Evans et al. (Biochemical Pharmacology, 36: 2035-2037, 1987). Specifically, an enzyme preparation derived from the seminal vesicles of sheep was incubated at 27° C. for 1.5 minutes in the presence of 500 μM arachidonic acid and 300 μM Compound 3. After the reaction was stopped by adding trichloroacetic acid to the reaction mixture, its absorbance was measured at 532 nm."}}, "data": [{"smiles": "COc1cc(O)c2c(=O)oc(C(C)C(=O)O)cc2c1", "note": "(stereo not shown) [Compound 3, 2-(8-hydroxy-6-methoxy-1-oxo-1H-2-benzopyran-3-yl)propionic Acid]", "values": [{"measurement": "concentration at 5 min", "setting": "[1]; mouse, plasma, 5 min, read-out: Concentration of unchanged Compound 3 in blood plasma, mean", "value": 123, "unit": "µg/mL"}, {"measurement": "concentration at 0.5 h", "setting": "[1]; mouse, plasma, 30 min, read-out: Concentration of unchanged Compound 3 in blood plasma, mean", "value": 131, "unit": "µg/mL"}, {"measurement": "concentration at 4 h", "setting": "[1]; mouse, plasma, 4 hr, read-out: Concentration of unchanged Compound 3 in blood plasma, mean", "value": 63, "unit": "µg/mL"}, {"measurement": "concentration at 8 h", "setting": "[1]; mouse, plasma, 8 hr, read-out: Concentration of unchanged Compound 3 in blood plasma, mean", "value": 38.4, "unit": "µg/mL"}, {"measurement": "concentration at 24 h", "setting": "[1]; mouse, plasma, 24 hr, read-out: Concentration of unchanged Compound 3 in blood plasma, mean", "value": 0.19, "unit": "µg/mL"}, {"measurement": "Tmax", "setting": "[1]; mouse, plasma, unchanged compound, read-out: time of peak / highest plasma level after administration (converted)", "value": 30, "unit": "min"}, {"measurement": "plasma concentration after 8 hours (in words)", "setting": "[1]; 8 hr", "value": "remained high even after 8 hours"}, {"measurement": "plasma concentration after 24 hours (in words)", "setting": "[1]; 24 hr", "value": "dropped to a vary low level after 24 hours"}, {"measurement": "inhibitory effect on cyclooxygenase (in words)", "setting": "[2]; 30 μM or 300 μM", "value": "no inhibitory effect on cyclooxygenase or lipoxygenase"}, {"measurement": "Degree of inhibition (%), Cyclooxygenase", "setting": "[2]; 300 μM Compound 3, 500 μM arachidonic acid, n = 2", "value": -4.0, "unit": "%"}]}]}
